target: Calcium-dependent protein kinase 1 (Plasmodium falciparum (isolate 3D7)) (UniProt P62344); test: PfCDPK1 kinase inhibitors, biochemical, TCAMS library (AID 1159585); settings: recombinant PfCDPK1, Kinase-Glo ATP depletion luminescence;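 note: inhibitors leave more ATP so luminescence rises with inhibition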
Sequence (P62344 whole entry, looked up): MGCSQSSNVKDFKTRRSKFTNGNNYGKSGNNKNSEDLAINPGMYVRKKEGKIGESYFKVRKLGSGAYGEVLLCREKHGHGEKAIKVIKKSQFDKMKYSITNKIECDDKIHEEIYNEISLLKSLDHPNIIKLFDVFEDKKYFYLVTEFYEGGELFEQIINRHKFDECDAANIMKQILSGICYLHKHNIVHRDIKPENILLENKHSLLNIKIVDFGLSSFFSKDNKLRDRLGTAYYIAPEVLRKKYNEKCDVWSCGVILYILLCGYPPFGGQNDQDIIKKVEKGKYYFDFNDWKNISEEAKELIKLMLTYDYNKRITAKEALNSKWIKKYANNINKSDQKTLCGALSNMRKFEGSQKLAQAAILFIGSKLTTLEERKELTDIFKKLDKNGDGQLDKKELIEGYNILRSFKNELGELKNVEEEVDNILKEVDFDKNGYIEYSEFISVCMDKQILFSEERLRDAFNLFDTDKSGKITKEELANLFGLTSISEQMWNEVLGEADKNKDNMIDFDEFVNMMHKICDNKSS

SMILES | IC50
Cc1ccc(Nc2ccnc(Nc3ccc4c(c3)CS(=O)(=O)C4)n2)cc1O | 416 nM
O=C(NCCN1CCCCC1)c1cccc(Nc2nccc(Nc3ccc(Oc4ccccc4)cc3)n2)c1 | 250 nM
Cc1ccc(Nc2nccc(Nc3ccc4c(c3)nc(Nc3cc(C(C)(C)C)on3)n4C)n2)cc1S(C)(=O)=O | 242 nM
CN1CCN(c2ccc(Nc3ncc(C#N)c(Nc4ccccc4C(N)=O)n3)cc2)CC1 | 12 nM
CN(C(=O)c1cc2c(-c3cncnc3)cccc2[nH]1)c1ccccc1 | 271 nM
Cc1cccc2[nH]c(-c3cc(-c4cn[nH]c4)cnc3N)nc12 | 296 nM
CN1CCC=C(C(=O)NCC(C)(C)c2nc(-c3ccc(Cl)c(O)c3)c(-c3ccncc3)[nH]2)C1 | 213 nM
CCn1c(-c2nonc2N)nc2c(-c3cccc(NC(=O)Nc4ccccc4Cl)c3)ncc(OCCCN)c21 | 72 nM
COc1ccc(Nc2ncc3c(-c4cccc(NC(=O)Cc5ccc(O)cc5)c4)c[nH]c3n2)cc1OC | 98 nM
N#CCc1ccc(Nc2nccc(Nc3ccc(Oc4ccccc4)cc3)n2)cc1 | 798 nM
NC(=O)c1ccccc1Nc1nc(Nc2ccn[nH]2)ncc1Cl | 186 nM
CC(C)(CNCc1ccc(Cl)c(Cl)c1)c1nc(-c2ccc(Cl)c(O)c2)c(-c2ccncc2)[nH]1 | 539 nM
N#Cc1ccc(-c2cnc3ccc(NCCc4cccnc4)nn23)cc1 | 246 nM
COc1cc(-c2nc(C(C)(C)CN)[nH]c2-c2ccncc2)ccc1Br | 159 nM
CCN(CC)CCOc1ccc(Nc2ncc3cc(-c4c(Cl)cccc4Cl)c(=O)n(C)c3n2)cc1 | 780 nM
COc1ccc(-c2cnc3ccc(NC4CCC(O)CC4)nn23)cn1 (stereo unspecified) | 379 nM
CCn1c(-c2nonc2N)nc2c(-c3cccc(NC(=O)Nc4cccc(C(F)(F)F)c4)c3)ncc(OCCCN)c21 | 15 nM
O=C(Nc1cccc(-c2nn3ccccc3c2-c2ccnc(Nc3ccc(NCCCN4CCOCC4)c(F)c3)n2)c1)c1c(F)cccc1F | 38 nM
CS(=O)(=O)Cc1ccc(Nc2nccc(N3CCCc4cc(NC(=O)Nc5cccc(C(F)(F)F)c5)ccc43)n2)cc1 | 145 nM
O=C(NCCCN1CCCCC1)c1ccc(Nc2nccc(Nc3ccc(Oc4ccccc4)cc3)n2)cc1 | 94 nM
CCn1c(-c2nonc2N)nc2c(-c3ccc(CO)o3)ncc(OCCCN)c21 | 51 nM
CC(C)(C)CNCC(C)(C)c1nc(-c2ccc(Cl)c(O)c2)c(-c2ccncc2)[nH]1 | 159 nM
NCCNC(=O)c1ccc(-c2cnc3[nH]cc(-c4ccc(C(N)=O)cc4)c3c2)cc1 | 24 nM

SMILES | IC50
COc1cccc(CNCC(C)(C)c2nc(-c3ccc(Cl)c(O)c3)c(-c3ccncc3)[nH]2)c1 | 275 nM
O=C(NC1CC1)c1ccc(Nc2nccc(-c3c(-c4cccc(NC(=O)c5c(F)cccc5F)c4)nn4ccccc34)n2)cc1 | 26 nM
O=C(Nc1cccc(-c2nn3ccccc3c2-c2ccnc(Nc3ccc(-c4ccn[nH]4)cc3)n2)c1)c1c(F)cccc1F | 22 nM
CN(C)Cc1ccc(-c2ccc3c(Nc4ccc(Oc5ccccn5)cc4)ccnc3c2)o1 | 513 nM
O=C(Nc1cccc(-c2nn3ccccc3c2-c2ccnc(Nc3ccc(C(=O)N4CCOCC4)cc3)n2)c1)c1c(F)cccc1F | 92 nM
Cc1nnc(-c2cccc(Nc3ccnc4cc(-c5nccs5)ccc34)c2)o1 | 186 nM
CC(C)(CNCc1ccc(OC(F)(F)F)cc1)c1nc(-c2ccc(Cl)c(O)c2)c(-c2ccncc2)[nH]1 | 438 nM
CC(C)(CNCc1ccc(C(F)(F)F)cc1)c1nc(-c2ccc(Cl)c(O)c2)c(-c2ccnc(N)n2)[nH]1 | 353 nM
COc1ccc(Nc2ncc(C#N)c(Nc3ccccc3C(N)=O)n2)cc1N1CCN(C)CC1 | 89 nM
O=c1[nH]ccc2nc(N[C@@H]3CCCNC3)nc(Nc3ccc(S(=O)(=O)N4CCOCC4)cc3)c12 | 146 nM
CCn1c(-c2nonc2N)nc2c(-c3cccc(NC(=O)NC45CC6CC(CC(C6)C4)C5)c3)ncc(OCCCN)c21 | 84 nM
CCn1c(-c2nonc2N)nc2c(-c3cccc(NC(=O)Nc4cccc(Cl)c4)c3)ncc(OCCCN)c21 | 379 nM
COc1ccc(Nc2ncc3c(-c4cccc(NC(=O)Cc5cccc(O)c5)c4)c[nH]c3n2)cc1OC | 312 nM
NCCNS(=O)(=O)c1ccc(-c2ccnc3[nH]c(-c4ccncc4)cc23)cc1 | 422 nM
NCC(NC(=O)c1ccc(-c2c[nH]c3ncccc23)s1)c1ccccc1 (stereo unspecified) | 29 nM
Cc1cc(Nc2ncc(C#N)c(Nc3ccccc3C(N)=O)n2)ccc1N1CCN(C)CC1 | 10 nM
CCn1c(-c2nonc2N)nc2c(-c3ccccc3)ncc(OCCCNCCCN3CCOCC3)c21 | 42 nM
Fc1cc(Cl)ccc1Nc1ccnc2cc(-c3ccc(CNCCN4CCOCC4)o3)ccc12 | 383 nM
CC(=O)Nc1cccc(Nc2nccc(-c3c(-c4cccc(NC(=O)c5c(F)cccc5F)c4)nn4ncccc34)n2)c1 | 15 nM
CS(=O)(=O)Cc1ccc(Nc2nccc(-c3c(-c4cccc(NC(=O)c5c(F)cccc5F)c4)nn4ccccc34)n2)cc1 | 20 nM
COc1cc(Nc2nccc(-c3c(-c4cccc(NC(=O)c5c(F)cccc5F)c4)nn4ccccc34)n2)cc(OC)c1OC | 60 nM
CS(=O)(=O)CCNCc1cccc(-c2ccc3c(Nc4ccc(Oc5cccnc5)cc4)ccnc3c2)c1 | 966 nM
Cc1cc(Nc2ncc(Cl)c(Nc3ccccc3C(N)=O)n2)n[nH]1 | 76 nM

SMILES | IC50
CCn1c(-c2nonc2N)nc2c(-c3ccccc3)ncc(OCCCCNCCc3ncc[nH]3)c21 | 94 nM
CC(C)(CNC(=O)[C@H]1CCCCN1)c1nc(-c2ccc(Cl)c(O)c2)c(-c2ccncc2)[nH]1 | 164 nM
CC(C)(CN)c1nc(-c2ccc(Cl)c(O)c2)c(-c2ccncc2)[nH]1 | 10 nM
Cc1csc(-c2ncc(OC[C@@H](N)Cc3ccccc3)cc2-c2ccc3n[nH]c(C)c3c2)c1 | 44 nM
CC(C)(CNCc1ccccc1)c1nc(-c2ccc(Cl)c(O)c2)c(-c2ccncc2)[nH]1 | 190 nM
COCCNCc1ncsc1-c1ccc2c(Nc3cc(O)c(Cl)cc3F)ccnc2c1 | 150 nM
CC(C)(CNC(=O)C1CCN(CCOc2ccc(F)c(F)c2)CC1)c1nc(-c2ccc(Cl)c(O)c2)c(-c2ccncc2)[nH]1 | 664 nM
NCCCNc1nc(Nc2cccc(C(N)=O)c2)c2c(=O)[nH]ccc2n1 | 750 nM
c1ccc(Oc2ccc(Nc3ccnc4cc(-c5ccc(CNCCN6CCOCC6)o5)ccc34)cc2)cc1 | 435 nM
CCn1c(-c2nonc2N)nc2c(-c3cccc(NC(=O)Nc4ccc5c(c4)CCC5)c3)ncc(OCCCN)c21 | 85 nM
CN(C)CCNCc1ccc(-c2ccc3c(Nc4ccc(Oc5ccccc5)cc4)ccnc3c2)o1 | 681 nM
O=C(Nc1c(F)cccc1F)c1cccc(-c2nn3ccccc3c2-c2ccnc(Nc3cccc(-c4cnco4)c3)n2)c1 | 40 nM
CC(=O)Nc1cccc(Nc2nccc(Nc3ccc(Oc4ccccc4)cc3)n2)c1 | 425 nM
O=C(NCCCN1CCOCC1)c1cccc(Nc2nccc(Nc3ccc(Oc4ccccc4)cc3)n2)c1 | 180 nM
CN(C)CCN(C)Cc1nc(-c2ccc3c(Nc4ccc(Oc5ccccc5)cc4)ccnc3c2)cs1 | 915 nM
CS(=O)(=O)Cc1ccc(Nc2nccc(-c3c(-c4cccc(C(=O)Nc5c(F)cccc5F)c4)nn4ccccc34)n2)cc1 | 50 nM
CN(C)CCNCc1ccc(-c2ccc3c(Nc4ccc(Cl)cc4F)ccnc3c2)o1 | 374 nM
O=C(NCC(c1ccc(C(F)(F)F)cc1)N1CCCC1)c1cc(-c2ccncc2)c(-c2cccc(O)c2)o1 (stereo unspecified) | 283 nM
CC(C)(CNC(=O)[C@@H]1CCCCN1)c1nc(-c2ccc(Cl)c(O)c2)c(-c2ccncc2)[nH]1 | 192 nM
Cn1c(Nc2cc(C(C)(C)C)on2)nc2cc(Nc3ccnc(Nc4cccc(CS(C)(=O)=O)c4)n3)ccc21 | 114 nM
Oc1cc(Nc2ccnc3cc(I)ccc23)c(F)cc1Cl | 282 nM
CN1CCN(Cc2cccc(-c3ccc4c(Nc5cc(O)c(Cl)cc5F)ccnc4c3)c2)CC1 | 762 nM
Nc1ncc(-c2cn[nH]c2)cc1-c1nc2ncc(Cl)cc2[nH]1 | 280 nM

SMILES | IC50
CCn1c(-c2nonc2N)nc2c(-c3cccc(NC(=O)Nc4ccccc4OC)c3)ncc(OCCCN)c21 | 32 nM
CCn1c(-c2nonc2N)nc2c(-c3cccc(Cl)c3)ncc(OCCCNCCc3cnc[nH]3)c21 | 138 nM
COCCNCc1cccc(-c2ccc3c(Nc4cc(O)c(Cl)cc4F)ccnc3c2)c1 | 436 nM
Cc1ccc(Nc2nc3cc(N(C)c4ccnc(Nc5cccc(CCS(C)(=O)=O)c5)n4)ccc3n2C)cc1 | 160 nM
CS(=O)(=O)Nc1cccc(-c2cnc3[nH]cc(-c4ccc(CN)cc4)c3c2)c1 | 552 nM
CNC(=O)c1ccccc1Nc1nc(Nc2ccc(N3CCN(C)CC3)nc2)ncc1C | 45 nM
Cc1nc(-c2cccc(Nc3ccnc4cc(-c5nccs5)ccc34)c2)no1 | 191 nM
Cc1cccc(Nc2nc(N[C@@H]3CCCNC3)nc3cc[nH]c(=O)c23)c1 | 23 nM
c1cncc(Oc2ccc(Nc3ccnc4cc(-c5cccc(CNCCN6CCOCC6)c5)ccc34)cc2)c1 | 705 nM
CCn1c(-c2nonc2N)nc2c(-c3cccc(NC(=O)Nc4ccc(Cl)cc4)c3)ncc(OCCCN)c21 | 44 nM
NC[C@H](CC1CCCCC1)NC(=O)c1ccc(-c2ccnc3[nH]ccc23)s1 | 492 nM
Oc1cccc(Nc2ccnc3cc(-c4ccncc4)ccc23)c1 | 884 nM
CCn1c(-c2nonc2N)nc2c(-c3cccc(NC(=O)Nc4ccc(C#N)cc4)c3)ncc(OCCCN)c21 | 235 nM
CC(C)(CNC(=O)[C@H]1CCCN1)c1nc(-c2ccc(Cl)c(O)c2)c(-c2ccncc2)[nH]1 | 179 nM
CC(C)(CNCc1ccc(F)c(F)c1)c1nc(-c2ccc(Cl)c(O)c2)c(-c2ccncc2)[nH]1 | 451 nM
CCCN1CCN(CCNC(=O)c2cccc(Nc3nccc(Nc4ccc(Oc5ccccc5)cc4)n3)c2)CC1 | 336 nM
NCCCOc1cnc(-c2ccccc2)c2nc(-c3nonc3N)n(CCc3ccccc3)c12 | 47 nM
CNC(=O)c1ccccc1Nc1nc(Nc2ccc(N3CCOCC3)cc2)ncc1Cl | 144 nM
CCOC(=O)c1cccc(NC(=O)Nc2cccc(-c3ncc(OCCCN)c4c3nc(-c3nonc3N)n4CC)c2)c1 | 294 nM
CN1CCN(c2ccc(Nc3nccc(-c4c(-c5cccc(NC(=O)c6c(F)cccc6F)c5)nn5ccccc45)n3)cc2)CC1 | 35 nM
O=c1[nH]ccc2nc(N[C@@H]3CCNC3)nc(Nc3cc(Cl)cc(Cl)c3)c12 | 33 nM
O=C(NCCN1CCCC1)c1cccc(Nc2nccc(Nc3ccc(Oc4ccccc4)cc3)n2)c1 | 213 nM

From PubChem BioAssay AID1159585 (Gregory J. Crowther, 2016)
